Legend:
[1] = test system: LHON model induced by intravitreal rotenone in C57BL/6 mouse; assay: Leber's hereditary optic neuropathy (LHON) mouse model, optomotor response; format: in vivo; settings: rotenone in left eye, 200 mg/kg orally in food
Description: FIG. 5: Efficacy of representative compounds of Formula (I) in leber's hereditary optic neuropathy (LHON) mouse model. LHON induced by rotenone injection in the left eye (5 μM) in C57BL/6 mouse model (Refer to Heitz, F. D et al. (2012). PLoS One., 7(9), e45182). […] Representative compounds (UTA 37 and UTA 77) and idebenone administered at 200 mg/kg over the observation period.
LHON model was induced by intravitreal injection of rotenone into the left eye in C57BL/6 mouse model as described by Heitz et al. 2012. Representative compounds (UTA 37 and UTA 77) and idebenone administered at 200 mg/kg over the observation period. Vision loss was measured by assessing number of head turns.
C57BL/6 mice (male, 8-11 weeks of age, average body weight≈25 g) were used in accordance with the Australian code for the use of animals for scientific purposes and under the required animal ethics approval from the University of Tasmania (UTAS) Animal Ethics Committee (Approval number A0016080). Animals were given at least seven days to acclimatise to the animal facility to reduce stress induced by transportation before being used for behavioural testing. All mice were supplied orally with test compounds by mixing test compounds into individual daily food portions as described previously (Heitz, F. D. et al. (2012). PLoS One., 7(9), e45182). […]

HepG2 cells [2] = assay: Cell viability in the presence of a mitochondrial inhibitor (rotenone 10 μM); format: cell-based; settings: for viability at 10 µM: Homo sapiens, HepG2, 48 h, read-out: CELL VIABILITY [%]
Description: (§1) Cytoprotection of HepG2 cells by naphthoquinones was quantified in the presence of the mitochondrial toxin, rotenone. Briefly, HepG2 cells were seeded in 96-well plates at 5000 cells/well in DMEM with 0.3 g/l glucose, 10% FBS and Penicillin-Streptomycin-Glutamine. After overnight incubation under standard conditions, cells were treated with the test compounds (10 μM) for 2 days before cells were challenged with 1 μM rotenone in the presence of 10 μM test compounds in Hank's balanced salt solution (HBSS) for 6 hours. This was followed by post-incubation for an additional 18 hours with only 10 μM test compounds in HBSS. For measurement of cell viability, cells were washed with 100 μL PBS twice and then lysed using 40 μL lysis solution (4 mM EDTA, 0.2% Triton X-100) for 5 min at room temperature (RT) on an orbital shaker at 200 rpm. Then 10 μL of the lysate was mixed with 90 μL of enzyme-substrate mixture (as described above) in a white 96 well plate and luminescence was measured immediately using a plate-reader (Fluoroscan Ascent, Thermo Scientific). The data is expressed as % viability compared to the untreated (no-rotenone) control.
The cytoprotective effects of representative compounds of Formula (I) were further examined in vitro in response to rotenone toxicity at (10 μM). […] Cells were treated with the representative compounds of Formula (I) compounds (10 μM) for 2 days before cells were challenged with 10 μM rotenone.
Vitamin K, Menadione and Idebenone were used as comparative controls.

HepG2 cells [3] = assay: Rescue of cell viability in the presence of a mitochondrial inhibitor (rotenone 1 μM); format: cell-based; settings: for viability at 10 µM: Homo sapiens
Description: as §1
The extent of protection of cellular viability against a rotenone challenge of representative compounds of Formula (I) is shown below in Table 5. Vitamin K, Menadione and Idebenone were used as comparative controls. DMSO was used as a control.

HepG2 cells [4] = assay: Acute ATP rescue assay (impaired mitochondrial function, rotenone); format: cell-based; settings: for ATP rescue (in words): HepG2, rotenone, comment on Table 4
Description: HepG2 cells were seeded at a density of 5000 cells per well in a 96-well plate and incubated for 24 hours in DMEM with 0.3 g/l glucose, 10% FBS and Penicillin-Streptomycin-Glutamine. Cells were treated with 1 μM quinones in presence or absence of rotenone (10 μM), for 60 minutes in glucose-free DMEM ATP levels were quantified using luminescence from the ATP-dependent enzymatic oxidation of luciferin by luciferase. Cells were lysed in a volume of 40 μl (4 mM EDTA, 0.2% Triton X-100) for five minutes at room temperature (RT) on an orbital shaker at 200 rpm. […] Luminescence was quantified immediately using a multimode plate reader (Fluoroscan Ascent, Thermo Scientific). ATP levels were standardized to protein levels using a commercial BCA assay (Protein DC; BioRad) and changes were calculated as percentage relative to levels of DMSO-treated control cells. Data is expressed as % ATP compared to the untreated (no-rotenone) control.
Vitamin K, menadione and idebenone were used as comparative controls. DMSO was used as a control.

HepG2 cells [5] = assay: ATP rescue in the presence of a mitochondrial inhibitor (rotenone 10 μM); format: cell-based; settings: compounds 10 uM for 2 days, then 10 μM rotenone challenge
Description: The extent of ATP rescue of representative compounds of Formula (I) were further examined in vitro in response to rotenone toxicity at (10 μM). […] Cells were treated with the representative compounds of Formula (I) compounds (10 μM) for 2 days before cells were challenged with 10 μM rotenone.

HepG2 cells [6] = assay: Extracellular lactate levels, enzyme-linked colorimetric assay; format: cell-based; settings: HepG2 culture medium; for Extracellular lactate [% control]: 25 mM glucose, supernatant after 48 h, standardized to protein; for Effect on lactate production (in words): comment on the lactate table
Description: Lactate concentrations in culture medium were determined by an enzyme-linked colorimetric assay. Briefly, 150,000 HepG2 cells were seeded in normal growth media (DMEM, 10% FCS, Pen/Strep) in each well of a 6-well plate (Life Science, USA) and incubated for 24 h. The media was replaced with growth media containing (25 mM glucose,) with and without test compounds. Three untreated wells containing only cells were considered the experimental baseline control and all compounds were tested in three different wells simultaneously. Supernatants were collected after 48 h and transferred into 96-well format. After the addition of 90 μl of reaction buffer (10 mM KH2PO4 pH 7.8, 1 mg/ml BSA, 0.5 mM PMS, 2 mM EDTA, 0.6 mM DCPIP, 0.8 mM NAD+, 5 U/ml glutamate-pyruvate-transaminase, 1.5 mM glutamate, 12.5 U/ml lactate dehydrogenase) the plate was incubated at 30° C. inside a multimode plate reader (Multiscan Go, Thermo Scientific) and absorbance was measured at 600 nm over a period of 100 minutes. A standard curve was generated using media spiked with known lactate concentrations. Finally, protein levels were quantified and the lactate concentration of each well was standardized to its protein content and was then expressed as % of control.
The extent of lactate reduction in the cell culture media by the test compounds of the subject invention and the Comparative Compounds vitamin K, menadione and idebenone is shown below in Table 6.

## CC1=C(CCCC(=O)N[C@@H](Cc2ccccc2)C(=O)O)C(=O)c2ccccc2C1=O [UTA #37, (S)-2-(4-(3-methyl-1,4-naphthoquinone-2-yl)butanamido)-3-phenylpropanoic Acid]
[1]
  Protection of visual acuity (head turns, optomotor response; in words): Statistically significant protection of visual acuity
HepG2 cells [2]
  viability at 10 µM: 100%
HepG2 cells [3]; HepG2
  viability at 10 µM: 100%

## Vitamin K [reference compound]
HepG2 cells [4]
  ATP rescue (in words): no or minor effects
HepG2 cells [4]; HepG2, 1 μM quinones with rotenone 10 μM, 60 minutes, glucose-free DMEM, % ATP compared to untreated (no-rotenone) control
  ATP rescue [%]: 3.5%
HepG2 cells [5]
  % ATP RESCUE: 3.5%
HepG2 cells [2]; HepG2, compounds 10 uM for 2 days, then 10 μM rotenone challenge
  CELL VIABILITY [%]: 14.5%
HepG2 cells [3]; HepG2, rotenone, comment on Table 5
  Protection of cell viability (in words): no protective effect
HepG2 cells [3]; HepG2, 10 μM test compound 2 days, 1 μM rotenone challenge 6 hours, 18 hours post-incubation, % of untreated (no-rotenone) control
  Viability [%]: 14.5%
HepG2 cells [6]
  Extracellular lactate [% control]: 92.0 % control
  Effect on lactate production (in words): slight but non-significant effect

## CC1=C(CCCCCCCCCCO)C(=O)c2ccccc2C1=O [UTA #2, 2-(10-Hydroxydecyl)-3 methyl-1,4-naphthoquinone]
other
  melting point: 74 to 75 °C
HepG2 cells [2]
  viability at 10 µM: 68.9%

## CC1=CC(=O)c2ccccc2C1=O [Menadione, reference compound]
HepG2 cells [4]
  ATP rescue (in words): no or minor effects
HepG2 cells [4]; Homo sapiens, 1 h, HepG2, 1 μM quinones with rotenone 10 μM, 60 minutes, glucose-free DMEM, % ATP compared to untreated (no-rotenone) control
  activity at 1 µM: 30.6%
HepG2 cells [2]
  viability at 10 µM: 64%
HepG2 cells [3]; HepG2
  viability at 10 µM: 64%
HepG2 cells [6]
  Extracellular lactate [% control]: 163.3 % control
  Effect on lactate production (in words): increase lactate concentrations
